# Data published in patent US10590143B2, “Herbicidally active (alkynyl-phenyl)-substituted cyclic dione compounds and derivatives thereof” (Syngenta Limited, priority 2013, dated 2020).
# How the values were obtained:
# Assay in all cases: Biological Example 2 glasshouse assay for herbicidal activity
# Assay type in all cases: in vivo
# Avena fatua (AVEFA) = details: post-emergence, 360 h, 14 or 15 DAA, 0.2% v/v X-77, read-out: percentage phytotoxicity AVEFA
# Procedure, shortened: (§1)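 Herbicide applied as a spray (IF50 formulation, 0.2% v/v X-77 adjuvant) to soil-grown plants pre-emergence or post-emergence. Ratings were taken 20 DAA or 14–15 DAA respectively, on a 0–100% scale.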
# [1] = system: SORVU (Sorghum bicolor (L.) Moench ssp. Bicolor, or Sorghum vulgare Pers.); details: post-emergence, 360 h, 14 or 15 DAA, 0.2% v/v X-77, read-out: percentage phytotoxicity SORVU
# Procedure, shortened: as §1
# [2] = system: Zea mays (ZEAMX, corn, maize, e.g. volunteer corn); details: post-emergence, 14 or 15 DAA
# Procedure, shortened: as §1
# [3] = system: Beta vulgaris (BEAVA, sugarbeet); details: post-emergence, 360 h, 14 or 15 DAA, 0.2% v/v X-77, read-out: percentage phytotoxicity BEAVA
# Procedure, shortened: as §1
# [4] = system: Echinochloa crus-galli (ECHCG); details: post-emergence, 14 or 15 DAA; for percentage phytotoxicity ECHCG: 0.2% v/v X-77
# Procedure, shortened: as §1
# [5] = system: Triticum aestivum (TRZAW, winter wheat); details: post-emergence, 360 h, 14 or 15 DAA, 0.2% v/v X-77, read-out: percentage phytotoxicity TRZAW
# Procedure, shortened: as §1
# [6] = system: Alopecurus myosuroides (ALOMY); details: post-emergence, 360 h, 14 or 15 DAA, 0.2% v/v X-77, read-out: percentage phytotoxicity ALOMY
# Procedure, shortened: as §1
# Lolium perenne (LOLPE) = details: post-emergence, 14 or 15 DAA
# Procedure, shortened: as §1
# [7] = system: Brachiaria plantaginea (BRAPL); details: Urochloa plantaginea, post-emergence, 360 h, 14 or 15 DAA, 0.2% v/v X-77, read-out: percentage phytotoxicity BRAPL
# Procedure, shortened: as §1
# [8] = system: Digitaria sanguinalis (DIGSA); details: post-emergence, 360 h, 14 or 15 DAA, 0.2% v/v X-77, read-out: percentage phytotoxicity DIGSA
# Procedure, shortened: as §1
# [9] = Zea mays, 360 h, 0.2% v/v X-77, read-out: percentage phytotoxicity ZEAMX
# [10] = Zea mays, 360 h, 250 g/ha, 0.2% v/v X-77, read-out: percentage phytotoxicity ZEAMX
# [11] = Echinochloa crus-galli, 360 h, 30 g/ha, 0.2% v/v X-77, read-out: percentage phytotoxicity ECHCG
# [12] = Echinochloa crus-galli, 360 h, 250 g/ha, 0.2% v/v X-77, read-out: percentage phytotoxicity ECHCG
# [13] = Lolium perenne, 360 h, 0.2% v/v X-77, read-out: percentage phytotoxicity LOLPE
# [14] = Lolium perenne, 360 h, 250 g/ha, 0.2% v/v X-77, read-out: percentage phytotoxicity LOLPE
Compound,pest or weed control at 30 g/ha (Avena fatua (AVEFA)),pest or weed control at 250 g/ha (Avena fatua (AVEFA)),pest or weed control at 30 g/ha [1],pest or weed control at 250 g/ha [1],"pest or weed control at 30 g/ha [2, 9]","pest or weed control at 250 g/ha [2, 10]",plant injury at 250 g/ha [3],"pest or weed control at 30 g/ha [4, 11]","pest or weed control at 250 g/ha [4, 12]",plant injury at 30 g/ha [5],plant injury at 250 g/ha [5],pest or weed control at 30 g/ha [6],pest or weed control at 250 g/ha [6],pest or weed control at 30 g/ha (Lolium perenne (LOLPE); [13]),pest or weed control at 250 g/ha (Lolium perenne (LOLPE); [14]),pest or weed control at 30 g/ha [7],pest or weed control at 250 g/ha [7],pest or weed control at 30 g/ha [8],pest or weed control at 250 g/ha [8],plant injury at 30 g/ha [3],other results
"CC#Cc1cc(F)c(C2C(=O)C3CCC(C3)C2=O)c(OC)c1 (stereo not drawn) [Compound A1, 3-(2-Fluoro-6-methoxy-4-prop-1-ynyl-phenyl)-bicyclo[3.2.1]octane-2,4-dione]",90%,100%,90%,100%,90%,100%,30%,100%,100%,70%,100%,80%,100%,90%,100%,90%,100%,100%,100%,,"percentage phytotoxicity ZEAMX ([2]; 250 g/ha, 0.2% v/v X-77): 100%; percentage phytotoxicity ECHCG ([4]; 30 g/ha): 100%; percentage phytotoxicity ECHCG ([4]; 250 g/ha): 100%; percentage phytotoxicity LOLPE (Lolium perenne (LOLPE); 250 g/ha, 0.2% v/v X-77): 100%"
CC#Cc1cc(F)c(C2C(=O)C3CCC(C)(C2=O)C3(C)C)c(OC)c1 (stereo not drawn) [Compound A2],,0%,,90%,,90%,0%,,90%,,0%,,60%,,0%,,,,80%,,
CC#Cc1cc(F)c(C2C(=O)C3CCC(C3)C2=O)c(OC(F)F)c1 (stereo not drawn) [Compound A7],10%,40%,50%,100%,80%,100%,10%,90%,100%,30%,70%,30%,70%,0%,40%,90%,100%,90%,100%,0%,"pest or weed control at 125 g/ha (Avena fatua (AVEFA); 125 g/ha): 30%; pest or weed control at 125 g/ha ([1]; 125 g/ha): 90%; pest or weed control at 125 g/ha ([2]; Zea mays, 360 h, 125 g/ha, 0.2% v/v X-77, read-out: percentage phytotoxicity ZEAMX): 90%; plant injury at 125 g/ha ([3]; 125 g/ha): 0%; pest or weed control at 125 g/ha ([4]; Echinochloa crus-galli, 360 h, 125 g/ha, 0.2% v/v X-77, read-out: percentage phytotoxicity ECHCG): 100%; plant injury at 125 g/ha ([5]; 125 g/ha): 70%; pest or weed control at 125 g/ha ([6]; 125 g/ha): 70%; pest or weed control at 125 g/ha (Lolium perenne (LOLPE); Lolium perenne, 360 h, 125 g/ha, 0.2% v/v X-77, read-out: percentage phytotoxicity LOLPE): 30%; pest or weed control at 125 g/ha ([7]; 125 g/ha): 100%; pest or weed control at 125 g/ha ([8]; 125 g/ha): 100%"
CC#Cc1cc(F)c(C2=C(OC(=O)C(C)(C)C)C3CCC(C3)C2=O)c(OC)c1 (stereo not drawn) [Compound P1],80%,90%,100%,100%,100%,100%,0%,100%,100%,60%,90%,80%,90%,100%,100%,100%,90%,90%,100%,0%,
CC#Cc1cc(F)c(C2=C(OC(=O)OC(C)C)C3CCC(C3)C2=O)c(OC)c1 (stereo not drawn) [Compound P3],90%,90%,100%,100%,100%,100%,0%,100%,100%,80%,90%,70%,90%,90%,100%,100%,100%,100%,100%,0%,
CC#Cc1cc(F)c(C2=C(OC(=O)SCC)C3CCC(C3)C2=O)c(OC)c1 (stereo not drawn) [Compound P4],90%,100%,100%,100%,100%,100%,0%,90%,100%,80%,100%,80%,100%,90%,100%,100%,100%,80%,100%,0%,
"CC#Cc1cc(F)c(C2=C(OC(=O)c3ccccc3)C3CCC(C3)C2=O)c(OC)c1 (stereo not drawn) [Compound P5, [3-(2-fluoro-6-methoxy-4-prop-1-ynyl-phenyl)-4-oxo-2-bicyclo[3.2.1]oct-2-enyl]benzoate]",80%,90%,80%,100%,90%,100%,0%,100%,100%,50%,,70%,90%,80%,100%,90%,100%,100%,100%,0%,
